Test results from patent US20050203082A1, “Combination therapy with inhibitors of inducible nitric oxide synthase and alkylating agents” (priority 2003, published 2005).
Where a name gives a salt, the structure may show the parent alone.

What was measured:
[1] = test system: human cartilage explants; assay: Human cartilage explant assay (IL-1 induced nitrite production); type: cell-based; conditions: inhibition of nitrite production, IL-1 stimulated explants
Description: Bone pieces are rinsed twice with Dulbecco's Phosphate Buffered Saline (GibcoBRL) and once with Dulbecco's Modified Eagles Medium (GibcoBRL) and placed into a petri dish with phenol red free Minimum Essential Medium (MEM) (GibcoBRL). […] The culture media was either a custom modification of Minimum Essential Medium(Eagle) with Earle's salts (GibcoBRL) prepared without L-Arginine, without L-Glutamine and without phenol red or a custom modification of serumless Neuman and Tytell (GibcoBRL) medium prepared without L-arginine, without insulin, without ascorbic acid, without L-glutamine and without phenol red. Both are supplemented before use with 100 μM L-Arginine (Sigma), 2 mM L-glutamine, 1× HL-1 supplement (BioWhittaker), […] ascorbic acid (Sigma) and 150 pg/ml recombinant human IL-1[…] (RD Systems) to induce nitric oxide synthase. Compounds are then added in 10 μL aliquots and the explants incubated at 37° C. with 5% CO2 for 18-24 hr. The day old supernatant is then discarded and replaced with fresh culture media containing recombinant human IL-1β and compound and incubated for another 20-24 hr. […] All samples are done in quadruplicate. Unstimulated controls are cultured in media in the absence of recombinant human IL-1{tilde over (□)} IC50 values (Table I) are determined from plotting the percent inhibition of nitrite production at 6 different concentrations of inhibitor.

[2] = test system: inducible nitric oxide synthase activity in vivo; assay: In vivo assay: LPS-induced plasma nitrite/nitrate in endotoxin-treated rats; parameters: species or system rat; conditions: oral administration, plasma nitrite/nitrate 5 hr post-treatment; for ED50: Rattus norvegicus
Description: Plasma nitrite/nitrate levels can be determined 5 hr post-treatment.

[3] = test system: C6 cells overexpressing iNOS; conditions: concentration-dependent; cited from earlier work
[4] = test system: recurrent GBM; conditions: recurrent GBM after resection and radiotherapy; cited from earlier work

SMILES	IC50 ([1]; Homo sapiens) [nM]	ED50 [2] [mg/kg]	other results
Cl.N=C1CCCC[C@H](CCCC[C@@H](N)C(=O)O)N1.O.O.O [Example V, (αR,2S)-α-aminohexahydro-7-imino-1H-azepine-2-hexanoic acid, trihydrate hydrochloride]	< 10000	< 3	
COC[C@](N)(CSCCNC(C)=N)C(=O)O [Example J, 2-[[[2-[(1-Iminoethyl)amino]ethyl]thiolmethyl]-O-methyl-D-serine, dihydrochloride]			IC50 [1]: 8200 nM
COC(=O)[C@@H](N)CCCNC(=N)N[N+](=O)[O-] [L-NAME]			BCNU toxicity [3]: restoration of BCNU toxicity; nitrite levels [3]: reduced the nitrite levels
N=C1CCCC[C@H](CCCC[C@H](N)C(=O)O)N1 [Example Z, (αS,2S)-α-aminohexahydro-7-imino-1H-azepine-2-hexanoic acid, trihydrate hydrochloride]	< 10000		
O=NN(CCCl)C(=O)NCCCl [BCNU, 1,3-bis(β-chloroethyl)-1-nitrosourea]			response rate [4]: about 30%
N=C1CCCC[C@H](CCCC[C@H](N)C(=O)O)N1 [Example X, (αS,2S)-α-aminohexahydro-7-imino-1H-azepine-2-hexanoic acid, trihydrate hydrochloride]			IC50 [1]: < 10000 nM
CC(=NO)NC/C(F)=C\CC[C@H](N)C(=O)O [Example G, (2S,5E)-2-amino-6-fluoro-7-[(1-hydroximinoethyl)amino]-5-heptenoic acid]		< 0.1	melting point: 198 to 200 °C
CC(=N)NCC(F)=CCC[C@H](N)C(=O)O (mixture of isomers) [Example B, (2S,5E/Z)-2-amino-6-fluoro-7-[(1-iminoethyl)amino]-5-heptenoic acid, dihydrochloride]	200		
CC(=N)NC/C=C\CC[C@](C)(N)C(=O)O [Example LL, (2S,5Z)-7-acetimidoylamino-2-amino-2-methyl-hept-5-enoic acid]	800	0.3	
O=NN(CCCl)C(=O)NC1CCCCC1 [CCNU, urea, N-(2-chloroethyl)-N′ cyclohexyl-N-nitroso-(9CI)]			response rate [4]: about 30%
CC(=N)NC/C(F)=C\CC[C@H](N)C(=O)Nc1nnn[nH]1 [Example H, (2S,5E)-2-amino-6-fluoro-7-[(1-iminoethyl)amino]-N-(1H-tetrazol-5-yl) 5-heptenamide, dihydrochloride]		< 0.3	
CC(=N)NC/C(F)=C/CC[C@H](N)C(=O)O [Example D, (2S,5Z)-2-amino-6-fluoro-7-[(1-iminoethyl)amino]-5-heptenoic acid, trihydrochloride, dihydrate]	2500	> 10	
CC(=N)NC/C(F)=C\CC[C@H](N)C(=O)O [Example A, (2S,5E)-2-amino-6-fluoro-7-[(1-iminoethyl)amino]-5-heptenoic acid, dihydrochloride]	100	< 0.1	ED50 in endotoxin-treated rats ([2]; dihydrochloride): <0.1 mg/kg
CC(=N)NC/C(F)=C\CC[C@](C)(N)C(=O)O.Cl.Cl [Example HH, (2S,5E)-2-amino-2-methyl-6-fluoro-7-[(1-iminoethyl)amino]-5-heptenoic acid, dihydrochloride]	400	0.4	
